According to publication PMC7246923, “Inhibition of Xanthine Oxidase-Catalyzed Xanthine and 6-Mercaptopurine Oxidation by Flavonoid Aglycones and Some of Their Conjugates” (International Journal of Molecular Sciences, 2020):
Read-outs that look alike come from different tables or passages of the source.

Key:
[1] = target: T1, Xanthine oxidase (XO; from bovine milk) (Bos taurus, UniProt P80457); experiment: XO-catalyzed xanthine oxidation (uric acid formation), HPLC; type: biochemical; conditions: for IC50 (xanthine)/IC50 (6MP): ratio of IC50 values of xanthine and 6MP assays; for IC50: substrate xanthine 5 μM, inhibitor 0–20 μM
T1 construct: Xanthine oxidase (XO; from bovine milk); purchased Sigma-Aldrich; host or cells: bovine milk
T1 sequence (P80457 whole entry): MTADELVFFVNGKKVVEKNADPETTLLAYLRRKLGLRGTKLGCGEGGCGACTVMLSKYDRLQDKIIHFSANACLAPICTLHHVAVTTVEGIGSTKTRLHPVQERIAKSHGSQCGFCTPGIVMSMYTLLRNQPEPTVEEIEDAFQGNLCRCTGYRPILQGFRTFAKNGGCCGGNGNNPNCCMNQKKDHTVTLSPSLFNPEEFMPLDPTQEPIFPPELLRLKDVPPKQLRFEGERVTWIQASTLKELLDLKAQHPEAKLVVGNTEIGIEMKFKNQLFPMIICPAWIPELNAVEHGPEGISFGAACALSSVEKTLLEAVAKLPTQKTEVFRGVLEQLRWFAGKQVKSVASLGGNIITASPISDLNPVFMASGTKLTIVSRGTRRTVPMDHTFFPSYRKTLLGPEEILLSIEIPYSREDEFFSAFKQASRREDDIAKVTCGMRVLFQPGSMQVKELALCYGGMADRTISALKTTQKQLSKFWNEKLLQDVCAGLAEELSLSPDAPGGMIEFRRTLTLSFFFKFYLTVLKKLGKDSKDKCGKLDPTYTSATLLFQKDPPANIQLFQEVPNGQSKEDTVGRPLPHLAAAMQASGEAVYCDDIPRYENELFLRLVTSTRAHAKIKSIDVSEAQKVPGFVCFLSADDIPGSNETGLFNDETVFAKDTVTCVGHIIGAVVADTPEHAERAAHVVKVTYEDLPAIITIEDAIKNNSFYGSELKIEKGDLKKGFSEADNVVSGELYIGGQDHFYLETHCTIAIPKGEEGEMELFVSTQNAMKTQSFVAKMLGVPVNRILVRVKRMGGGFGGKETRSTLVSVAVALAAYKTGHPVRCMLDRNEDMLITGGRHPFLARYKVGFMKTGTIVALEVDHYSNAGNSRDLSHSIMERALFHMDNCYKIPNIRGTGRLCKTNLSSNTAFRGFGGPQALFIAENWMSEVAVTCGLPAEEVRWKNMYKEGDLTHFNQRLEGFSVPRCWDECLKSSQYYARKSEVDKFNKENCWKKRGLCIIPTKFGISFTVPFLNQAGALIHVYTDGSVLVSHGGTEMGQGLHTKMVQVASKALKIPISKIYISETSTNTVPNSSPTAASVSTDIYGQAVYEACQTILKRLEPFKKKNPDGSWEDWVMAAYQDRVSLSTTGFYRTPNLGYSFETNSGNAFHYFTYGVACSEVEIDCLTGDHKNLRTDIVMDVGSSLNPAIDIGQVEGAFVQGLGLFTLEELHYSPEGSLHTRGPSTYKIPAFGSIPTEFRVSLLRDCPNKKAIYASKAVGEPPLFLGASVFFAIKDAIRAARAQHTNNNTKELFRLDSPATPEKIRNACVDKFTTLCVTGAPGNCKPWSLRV
Experimental: (§1) Chrysin-7-glucuronide (C7G) and 6-thiouric acid were purchased from Carbosynth (Berkshire, UK). Chrysin-7-sulfate (C7S) was synthetized as described. Stock solutions of flavonoids (each 2 mM) were prepared in dimethyl sulfoxide (DMSO) and stored at −20 °C.
(§2) To test the inhibitory effects of flavonoids and their metabolites on the XO-catalyzed oxidation of xanthine and 6MP, the previously reported methods were applied without modifications. […] In each experiment, solvent controls (DMSO) were used. Metabolite formation (% of control) was plotted vs. the inhibitor concentrations in decimal logarithmic scale. IC50 values were evaluated by sigmoidal fitting, employing GraphPad Prism 8 software (San Diego, CA, USA).
(§3) After the in vitro XO assays, xanthine and uric acid as well as 6MP and 6-thiouric acid were quantified by the HPLC-UV methods described in our previous report, without any modifications.

[2] = target: T1, Xanthine oxidase (XO; from bovine milk); experiment: XO-catalyzed 6-mercaptopurine oxidation (6-thiouric acid formation), HPLC; type: biochemical
Experimental: as §1, §2, §3

hyperuricaemic mice = conditions: cited from earlier work; for serum uric acid levels: orally administered; for serum uric acid concentrations: hyperuricemic mice, per os, API 50 and 100 mg/kg, KAE 50 and 100 mg/kg, LUT 100 mg/kg
normal mice = system: normal mice; design: method as in PMID 17666819; conditions: per os; cited from earlier work
[3] = substrate 6MP 5 μM, inhibitor 0–20 μM, read-out: IC50(6MP)
[4] = hyperuricaemic mice, LUT 16–100 mg/kg, LUT-7-O-glucoside 50 and 100 mg/kg

O=c1cc(-c2ccc(O)cc2)oc2cc(O)cc(O)c12 [Apigenin, 5,7,4’-trihydroxyflavone]
IC50 (xanthine)/IC50 (6MP) [1]: 3.00 | IC50 [1]: 0.27 µM | IC50 [2, 3]: 0.09 µM | IC50 ([2]; substrate 6MP 5 μM, read-out: IC50 values on 6MP oxidation): < 0.1 µM | serum uric acid levels (hyperuricaemic mice; hyperuricaemic mice, API 175–700 mg/kg): did not affect | serum uric acid concentrations (hyperuricaemic mice): significantly decreased

O=C(O)[C@H]1O[C@@H](Oc2cc(O)c3c(=O)cc(-c4ccccc4)oc3c2)[C@H](O)[C@@H](O)[C@@H]1O [Chrysin-7-glucuronide, chrysin-7-glucuronide]
IC50 [1]: > 20 µM | IC50 [2, 3]: > 20 µM

O=c1cc(-c2ccc(O)c(O)c2)oc2cc(O)cc(O)c12 [Luteolin, 5,7,3′,4′-tetrahydroxyflavone]
IC50 (xanthine)/IC50 (6MP) [1]: 0.59 | IC50 [1]: 0.16 µM | IC50 [2, 3]: 0.27 µM | uric acid levels (hyperuricaemic mice; hyperuricaemic mice, i.p. administration, 50 mg/kg): slight but significant decrease | serum uric acid levels (hyperuricaemic mice; [4]): did not affect | serum uric acid concentrations (hyperuricaemic mice): significantly decreased

O=c1c(O)c(-c2ccc(O)cc2)oc2cc(O)cc(O)c12 [Kaempferol, 3,5,7,4′-tetrahydroxyflavone]
serum uric acid concentrations (hyperuricaemic mice): significantly decreased | uric acid levels (normal mice): decreased

COc1cc(-c2oc3cc(O)ccc3c(=O)c2O)ccc1O [Geraldol, 3’-O-methylfisetin]
IC50 (xanthine)/IC50 (6MP) [1]: 0.57 | IC50 [1]: 0.68 µM | IC50 [2, 3]: 1.19 µM

O=c1cc(-c2ccc(O)c(O)c2)oc2cc(O[C@@H]3O[C@H](CO)[C@@H](O)[C@H](O)[C@H]3O)cc(O)c12 [LUT-7-O-glucoside]
serum uric acid levels (hyperuricaemic mice; [4]): did not affect

O=c1cc(-c2ccccc2)oc2cc(O)cc(O)c12 [Chrysin, 5,7-dihydroxyflavone]
IC50 (xanthine)/IC50 (6MP) [1]: 3.18 | IC50 [2]: 0.22 µM

O=c1cc(-c2ccccc2)oc2cc(OS(=O)(=O)O)cc(O)c12 [Chrysin-7-sulfate, chrysin-7-sulfate]
IC50 [1]: > 20 µM | IC50 [2, 3]: 2.23 µM

O=c1c(O)c(-c2ccc(O)c(O)c2)oc2cc(O)ccc12 [Fisetin, 3,7,3′,4′-tetrahydroxyflavone]
IC50 (xanthine)/IC50 (6MP) [1]: 0.78 | IC50 [1]: 0.86 µM | IC50 [2, 3]: 1.1 µM
